Measurements published in ChEMBL document CHEMBL1201862, “PubChem BioAssay data set” (2004).
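Values below derive from 48-hour exposures of cells grown in 96-well plates, with endpoints linearly interpolated between the two concentrations bracketing the appropriate inhibition level. GI50 = concentration required for 50% inhibition of growth.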 Active and inactive are the calls of the source. Cut-off read from the data, not from the text of the source: active = GI50 up to about 1.1 µM and inactive = higher.

Legend:
Test in all cases: NCI anticancer screen, dose series, 48 h
[1] = system: SF-295
[2] = system: HOP-92
[3] = system: 786-0
[4] = system: DU-145
[5] = system: HCT-15
[6] = system: SR
[7] = system: T47D
[8] = system: RPMI-8226
[9] = system: COLO 205
[10] = system: SK-OV-3
[11] = system: NCI-H23
[12] = system: IGROV-1
[13] = system: M14
[14] = system: UACC-257
[15] = system: SNB-75
[16] = system: UO-31
[17] = system: Hs-578T
[18] = system: HL-60
[19] = system: TK-10
[20] = system: SF-268
[21] = system: NCI-H460
[22] = system: ACHN
[23] = system: NCI-H226
[24] = system: RXF 393
[25] = system: SK-MEL-28
[26] = system: KM12
[27] = system: SK-MEL-2
[28] = system: LOX IMVI
[29] = system: HOP-62
[30] = system: MDA-MB-435
[31] = system: HCC 2998
[32] = system: PC-3
[33] = system: SNB-19
[34] = system: OVCAR-4
[35] = system: BT-549
[36] = system: MDA-MB-231
[37] = system: K562
[38] = system: SW-620
[39] = system: NCI/ADR-RES
[40] = system: A498
[41] = system: U-251
[42] = system: CAKI-1
[43] = system: HT-29
[44] = system: HCT-116
[45] = system: OVCAR-8
[46] = system: SF-539
[47] = system: SK-MEL-5
[48] = system: MCF7
[49] = system: EKVX
[50] = system: MOLT-4
[51] = system: UACC-62
[52] = system: CCRF-CEM
[53] = system: SN12C
[54] = system: Malme-3M
[55] = system: A549
[56] = system: NCI-H522
[57] = system: OVCAR-5
[58] = system: OVCAR-3
[59] = system: MDA-N

Measured: GI50

CC1=NN(c2nc(N)nc(C(C)Cl)n2)C(C)(C)C1 (stereo unspecified)
> 100 µM: [5]
inactive: [1] > 100 µM | [2] > 100 µM | [3] > 100 µM | [4] > 100 µM | [6] > 100 µM | [7] > 100 µM | [8] > 100 µM | [9] > 100 µM | [10] > 100 µM | [11] > 100 µM | [12] > 100 µM | [13] > 100 µM | [14] > 100 µM | [15] > 100 µM | [16] > 100 µM | [17] > 100 µM | [18] > 100 µM | [19] > 100 µM | [20] > 100 µM | [21] > 100 µM | [22] > 100 µM | [23] > 100 µM | [24] > 100 µM | [25] > 100 µM | [26] > 100 µM | [27] > 100 µM | [28] > 100 µM | [29] > 100 µM | [30] > 100 µM | [31] > 100 µM | [32] > 100 µM | [33] > 100 µM | [34] > 100 µM | [35] > 100 µM | [36] > 100 µM | [37] 85.9 µM | [38] > 100 µM | [39] > 100 µM | [40] > 100 µM | [41] > 100 µM | [42] > 100 µM | [43] > 100 µM | [44] > 100 µM | [45] > 100 µM | [46] > 100 µM | [47] > 100 µM | [48] > 100 µM | [49] > 100 µM | [50] > 100 µM | [51] > 100 µM | [52] > 100 µM

O=[N+]([O-])/C(C(Cl)=C(Cl)Cl)=C(\N1CCOCC1)n1nnc2ccccc21
15.4 µM: [5]
inactive: [1] 17.7 µM | [2] 18.3 µM | [53] 19.3 µM | [3] 22 µM | [4] 18.1 µM | [7] 16.9 µM | [8] 52.6 µM | [9] 18.8 µM | [10] 27.2 µM | [54] 18.4 µM | [55] 16.7 µM | [11] 16.7 µM | [13] 17.2 µM | [14] 20.7 µM | [15] 17.5 µM | [16] 17.8 µM | [19] 29.3 µM | [20] 18.3 µM | [21] 19.4 µM | [22] 18.7 µM | [23] 26.8 µM | [25] 22.5 µM | [26] 20.2 µM | [56] 16 µM | [27] 22.2 µM | [57] 21.1 µM | [29] 18.8 µM | [30] 17 µM | [32] 17.1 µM | [33] 14.3 µM | [34] 27.2 µM | [58] 19.8 µM | [35] 19 µM | [36] 17.5 µM | [39] 25.9 µM | [40] 16.9 µM | [41] 16.7 µM | [42] 17.7 µM | [44] 18.7 µM | [46] 15.4 µM | [47] 17.6 µM | [48] 19.7 µM | [49] 17.9 µM | [50] 33.5 µM | [51] 23.3 µM | [59] 19.6 µM

N[C@H](C(=O)O)[C@@H]1CC(Br)=NO1
54.1 µM: [5]
inactive: [1] 73.6 µM | [2] > 100 µM | [3] 99.8 µM | [4] > 100 µM | [6] 44.1 µM | [7] > 100 µM | [9] 71.3 µM | [10] 69.5 µM | [54] > 100 µM | [55] 87.5 µM | [11] > 100 µM | [13] 53.5 µM | [14] > 100 µM | [15] 62.4 µM | [16] > 100 µM | [17] > 100 µM | [18] > 100 µM | [19] 47.1 µM | [20] > 100 µM | [21] 42.2 µM | [22] 73.5 µM | [23] > 100 µM | [24] > 100 µM | [26] 75.2 µM | [56] 77.4 µM | [27] > 100 µM | [57] 61.4 µM | [29] 61.9 µM | [30] 95.3 µM | [31] 59.6 µM | [32] > 100 µM | [33] > 100 µM | [34] > 100 µM | [58] > 100 µM | [35] 88.9 µM | [36] > 100 µM | [38] 48.6 µM | [39] > 100 µM | [40] > 100 µM | [41] > 100 µM | [42] 90.2 µM | [43] 57.5 µM | [44] 52.4 µM | [45] 85.5 µM | [46] 97.7 µM | [47] 54.5 µM | [48] 41.5 µM | [49] 73.3 µM | [50] 59.3 µM | [51] 85.5 µM

CNC1=CC(=O)C2=C(C1=O)[C@H]1CC[C@]3(C)C(=O)CC[C@H]3[C@@H]1CC2
12.4 µM: [5]
inactive: [1] 15.3 µM | [2] 12 µM | [53] 19.9 µM | [3] 17.3 µM | [4] 15 µM | [6] 14.1 µM | [7] 18.9 µM | [8] 17.3 µM | [9] 13.7 µM | [10] 43.6 µM | [55] 19.8 µM | [11] 5.13 µM | [12] 5.43 µM | [13] 13.5 µM | [14] 13.2 µM | [15] 14.3 µM | [16] 18.8 µM | [19] 62.4 µM | [21] 18.5 µM | [22] 21.6 µM | [23] 12.4 µM | [24] 15.2 µM | [25] 18.2 µM | [26] 7.43 µM | [27] 2.63 µM | [57] 22.7 µM | [28] 4.54 µM | [29] 15.2 µM | [30] 5.66 µM | [31] 16 µM | [32] 13.1 µM | [33] 17.7 µM | [34] 9.38 µM | [58] 1.16 µM | [35] 16.4 µM | [36] 24.5 µM | [37] 12.6 µM | [38] 22.9 µM | [39] 13 µM | [40] 22.2 µM | [41] 21.8 µM | [42] 13.6 µM | [44] 16.9 µM | [45] 9.71 µM | [46] 18.4 µM | [47] 8.18 µM | [48] 20.2 µM | [49] 15.3 µM | [50] 11.1 µM | [51] 14 µM | [59] 8.17 µM | [52] 9.18 µM

CC(C)CCC[C@@H](C)[C@H]1CC[C@H]2[C@@H]3CC[C@H]4C[C@@H](CCC=C(c5cc(Cl)c(O)c(C(=O)O)c5)c5cc(Cl)c(O)c(C(=O)O)c5)CC[C@]4(C)[C@H]3CC[C@]12C
inactive: [1] > 100 µM | [2] > 100 µM | [53] > 100 µM | [3] > 100 µM | [4] > 100 µM | [6] > 100 µM | [7] > 100 µM | [8] > 100 µM | [9] > 100 µM | [10] > 100 µM | [54] > 100 µM | [55] > 100 µM | [11] > 100 µM | [12] > 100 µM | [13] > 100 µM | [14] > 100 µM | [15] > 100 µM | [16] > 100 µM | [17] > 100 µM | [18] > 100 µM | [19] > 100 µM | [20] > 100 µM | [21] > 100 µM | [22] > 100 µM | [23] > 100 µM | [24] > 100 µM | [25] > 100 µM | [26] > 100 µM | [56] > 100 µM | [27] > 100 µM | [57] > 100 µM | [28] > 100 µM | [29] > 100 µM | [30] > 100 µM | [31] > 100 µM | [32] > 100 µM | [33] > 100 µM | [34] > 100 µM | [58] > 100 µM | [35] > 100 µM | [36] > 100 µM | [37] > 100 µM | [38] > 100 µM | [39] > 100 µM | [40] > 100 µM | [41] > 100 µM | [42] > 100 µM | [43] > 100 µM | [44] > 100 µM | [45] > 100 µM | [46] > 100 µM | [47] > 100 µM | [48] > 100 µM | [49] > 100 µM | [50] > 100 µM | [51] > 100 µM | [52] > 100 µM
> 100 µM: [5]
